In patent US20230310428A1, “EGFR INHIBITOR AND PREPARATION METHOD AND USE THEREOF” (HONGYUN BIOTECH CO., LTD., priority 2020, published 2023):

Legend:
Test in all cases: Growth inhibitory activity of compounds on BaF3 cell lines stably transfected with kinase (MTS, 48 h)
Assay type in all cases: cell-based
[1] = molecular target: T1, various mutants of kinase EGFR (BaF3 cell lines stably transfected with kinase) (Homo sapiens, UniProt P00533, T790M/C797S, form not given); details: BaF3 cells stably transfected with EGFR Δ19Del/T790M/C797S, read-out: IC50, growth inhibition, Δ19Del/T790M/C797S
T1 construct: other: BaF3 cells stably transfected with EGFR Δ19Del/T790M/C797S; MTS, 48; other: BaF3 cell line stably transfected with EGFR Δ19Del/T790M/C7
Procedure, shortened: (§1)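 Transfected cells received compound (max 10 µM, 8 concentrations) for 48 h; MTS readout at 490 nm yielded IC50.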

[2] = molecular target: T2, various mutants of kinase EGFR (BaF3 cell lines stably transfected with kinase) (Homo sapiens, UniProt P00533, L858R); details: BaF3 cells stably transfected with EGFR L858R, read-out: IC50, growth inhibition, L858R
T2 construct: expressed in transfected cells; host or cells: BaF3
Procedure, shortened: as §1

[3] = molecular target: T3, various mutants of kinase EGFR (BaF3 cell lines stably transfected with kinase) (Homo sapiens, UniProt P00533, T790M, form not given); details: BaF3 cells stably transfected with EGFR Δ19Del/T790M, read-out: IC50, growth inhibition, Δ19Del/T790M
T3 construct: other: BaF3 cells stably transfected with EGFR Δ19Del/T790M; MTS, 48 h; other: BaF3 cell line stably transfected with EGFR Δ19Del/T790M; MTS, 48
Procedure, shortened: as §1

[4] = molecular target: T4, various mutants of kinase EGFR (BaF3 cell lines stably transfected with kinase) (Homo sapiens, UniProt P00533); details: BaF3 cells stably transfected with EGFR Δ19Del, read-out: IC50, growth inhibition, Δ19Del
T4 construct: other: BaF3 cells stably transfected with EGFR Δ19Del; MTS, 48 h; other: BaF3 cell line stably transfected with EGFR Δ19Del
Procedure, shortened: as §1

[5] = molecular target: T5, various mutants of kinase EGFR (BaF3 cell lines stably transfected with kinase) (Homo sapiens, UniProt P00533, L858R/T790M); details: BaF3 cells stably transfected with EGFR L858R/T790M, read-out: IC50, growth inhibition, L858R/T790M
T5 construct: expressed in transfected cells; host or cells: BaF3
Procedure, shortened: as §1

[6] = molecular target: T6, various mutants of kinase EGFR (BaF3 cell lines stably transfected with kinase) (Homo sapiens, UniProt P00533, C797S/L858R/T790M); details: BaF3 cells stably transfected with EGFR L858R/T790M/C797S, read-out: IC50, growth inhibition, L858R/T790M/C797S
T6 construct: expressed in transfected cells; host or cells: BaF3
Procedure, shortened: as §1

T1 sequence (P00533 with tags, fused parts or gaps DEL746-750/T790M/C797S, form open): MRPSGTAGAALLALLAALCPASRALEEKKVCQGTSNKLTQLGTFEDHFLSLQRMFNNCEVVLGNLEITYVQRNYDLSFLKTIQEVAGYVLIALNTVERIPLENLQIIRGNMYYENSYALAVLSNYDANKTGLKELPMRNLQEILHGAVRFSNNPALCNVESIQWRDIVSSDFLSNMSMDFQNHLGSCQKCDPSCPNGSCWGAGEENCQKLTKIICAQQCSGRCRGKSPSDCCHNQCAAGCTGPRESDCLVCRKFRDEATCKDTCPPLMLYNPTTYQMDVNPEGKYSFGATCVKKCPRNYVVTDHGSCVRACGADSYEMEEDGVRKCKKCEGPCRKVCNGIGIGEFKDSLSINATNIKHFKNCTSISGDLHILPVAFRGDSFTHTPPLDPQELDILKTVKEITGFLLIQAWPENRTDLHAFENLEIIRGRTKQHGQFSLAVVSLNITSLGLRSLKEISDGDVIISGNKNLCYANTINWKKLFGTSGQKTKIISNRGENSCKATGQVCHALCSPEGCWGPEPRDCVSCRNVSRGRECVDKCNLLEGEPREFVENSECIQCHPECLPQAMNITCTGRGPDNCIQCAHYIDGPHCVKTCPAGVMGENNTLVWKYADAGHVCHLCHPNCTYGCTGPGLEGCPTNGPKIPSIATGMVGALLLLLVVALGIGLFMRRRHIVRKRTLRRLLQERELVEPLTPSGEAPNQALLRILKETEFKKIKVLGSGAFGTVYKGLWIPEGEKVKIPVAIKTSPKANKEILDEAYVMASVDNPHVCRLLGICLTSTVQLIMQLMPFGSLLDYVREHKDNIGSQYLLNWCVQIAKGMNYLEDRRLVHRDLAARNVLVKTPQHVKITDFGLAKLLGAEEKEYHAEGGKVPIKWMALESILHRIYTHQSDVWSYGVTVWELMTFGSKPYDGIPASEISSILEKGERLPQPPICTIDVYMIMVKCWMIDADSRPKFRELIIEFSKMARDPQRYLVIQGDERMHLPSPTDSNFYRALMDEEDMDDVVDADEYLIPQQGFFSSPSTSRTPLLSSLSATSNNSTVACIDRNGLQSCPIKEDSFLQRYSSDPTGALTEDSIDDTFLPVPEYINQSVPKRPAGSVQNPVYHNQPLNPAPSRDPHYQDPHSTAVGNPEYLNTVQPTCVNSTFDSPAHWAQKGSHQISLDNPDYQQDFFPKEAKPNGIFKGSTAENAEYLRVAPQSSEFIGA
T4 sequence (P00533 with tags, fused parts or gaps DEL746-750): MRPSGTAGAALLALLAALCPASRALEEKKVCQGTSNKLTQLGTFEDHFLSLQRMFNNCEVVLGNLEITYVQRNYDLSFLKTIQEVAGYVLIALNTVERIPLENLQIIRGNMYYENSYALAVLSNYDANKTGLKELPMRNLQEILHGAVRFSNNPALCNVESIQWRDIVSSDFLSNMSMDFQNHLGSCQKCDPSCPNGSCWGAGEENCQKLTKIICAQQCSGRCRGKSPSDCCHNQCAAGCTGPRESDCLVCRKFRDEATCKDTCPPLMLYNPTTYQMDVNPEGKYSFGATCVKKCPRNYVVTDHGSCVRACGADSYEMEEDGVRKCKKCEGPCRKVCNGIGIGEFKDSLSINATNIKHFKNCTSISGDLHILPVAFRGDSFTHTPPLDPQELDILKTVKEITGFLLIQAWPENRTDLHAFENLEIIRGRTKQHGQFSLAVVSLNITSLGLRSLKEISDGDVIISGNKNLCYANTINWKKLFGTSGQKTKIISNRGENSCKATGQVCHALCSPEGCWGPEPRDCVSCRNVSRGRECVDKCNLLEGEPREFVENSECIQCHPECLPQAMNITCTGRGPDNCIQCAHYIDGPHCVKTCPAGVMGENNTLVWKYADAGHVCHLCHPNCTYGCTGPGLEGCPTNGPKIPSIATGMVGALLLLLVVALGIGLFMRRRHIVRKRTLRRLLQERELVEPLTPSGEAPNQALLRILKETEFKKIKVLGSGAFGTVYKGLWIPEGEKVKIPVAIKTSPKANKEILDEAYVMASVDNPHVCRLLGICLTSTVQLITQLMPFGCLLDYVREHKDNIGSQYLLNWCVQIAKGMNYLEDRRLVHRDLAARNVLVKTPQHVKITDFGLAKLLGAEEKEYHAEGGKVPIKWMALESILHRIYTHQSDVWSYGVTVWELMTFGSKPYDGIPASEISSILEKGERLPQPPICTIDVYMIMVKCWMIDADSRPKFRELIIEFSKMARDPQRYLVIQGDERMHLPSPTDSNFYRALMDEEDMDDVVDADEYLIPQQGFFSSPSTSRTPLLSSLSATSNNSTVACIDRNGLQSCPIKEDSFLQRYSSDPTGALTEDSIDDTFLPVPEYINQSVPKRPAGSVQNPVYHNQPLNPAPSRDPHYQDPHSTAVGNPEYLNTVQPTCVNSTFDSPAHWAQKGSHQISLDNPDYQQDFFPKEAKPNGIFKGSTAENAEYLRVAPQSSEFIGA
T6 sequence (P00533 25-1210 T790M/C797S/L858R): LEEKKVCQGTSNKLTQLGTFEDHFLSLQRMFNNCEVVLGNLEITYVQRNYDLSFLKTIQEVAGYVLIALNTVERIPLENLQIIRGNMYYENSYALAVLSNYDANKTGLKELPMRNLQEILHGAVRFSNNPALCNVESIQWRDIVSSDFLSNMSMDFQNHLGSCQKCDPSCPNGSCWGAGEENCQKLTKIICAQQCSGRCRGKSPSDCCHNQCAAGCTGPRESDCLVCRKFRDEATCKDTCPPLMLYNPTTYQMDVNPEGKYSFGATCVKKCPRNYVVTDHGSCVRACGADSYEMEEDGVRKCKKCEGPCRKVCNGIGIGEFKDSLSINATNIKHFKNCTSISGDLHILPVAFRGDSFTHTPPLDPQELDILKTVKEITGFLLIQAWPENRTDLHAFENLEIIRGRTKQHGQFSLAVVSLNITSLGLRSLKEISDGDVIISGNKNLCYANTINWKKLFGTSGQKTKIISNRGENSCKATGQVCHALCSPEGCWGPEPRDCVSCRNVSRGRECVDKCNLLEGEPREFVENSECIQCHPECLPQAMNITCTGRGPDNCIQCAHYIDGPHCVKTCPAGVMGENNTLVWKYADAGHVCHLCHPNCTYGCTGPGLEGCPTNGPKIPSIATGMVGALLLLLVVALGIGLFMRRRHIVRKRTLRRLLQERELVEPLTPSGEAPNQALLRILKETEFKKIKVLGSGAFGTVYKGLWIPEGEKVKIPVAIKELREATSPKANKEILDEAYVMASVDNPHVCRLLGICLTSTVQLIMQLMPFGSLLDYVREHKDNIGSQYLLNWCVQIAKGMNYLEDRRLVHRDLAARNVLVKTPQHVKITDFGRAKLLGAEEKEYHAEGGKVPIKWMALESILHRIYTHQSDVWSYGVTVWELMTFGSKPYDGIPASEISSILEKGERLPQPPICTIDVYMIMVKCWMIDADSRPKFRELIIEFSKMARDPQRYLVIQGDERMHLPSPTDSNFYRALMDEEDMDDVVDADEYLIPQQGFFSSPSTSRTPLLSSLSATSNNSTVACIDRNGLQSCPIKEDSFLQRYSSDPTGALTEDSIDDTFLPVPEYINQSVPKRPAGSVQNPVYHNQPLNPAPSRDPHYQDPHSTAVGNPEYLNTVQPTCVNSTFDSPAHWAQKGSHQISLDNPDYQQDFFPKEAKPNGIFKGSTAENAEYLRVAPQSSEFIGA
T3 sequence (P00533 with tags, fused parts or gaps DEL746-750/T790M, form open): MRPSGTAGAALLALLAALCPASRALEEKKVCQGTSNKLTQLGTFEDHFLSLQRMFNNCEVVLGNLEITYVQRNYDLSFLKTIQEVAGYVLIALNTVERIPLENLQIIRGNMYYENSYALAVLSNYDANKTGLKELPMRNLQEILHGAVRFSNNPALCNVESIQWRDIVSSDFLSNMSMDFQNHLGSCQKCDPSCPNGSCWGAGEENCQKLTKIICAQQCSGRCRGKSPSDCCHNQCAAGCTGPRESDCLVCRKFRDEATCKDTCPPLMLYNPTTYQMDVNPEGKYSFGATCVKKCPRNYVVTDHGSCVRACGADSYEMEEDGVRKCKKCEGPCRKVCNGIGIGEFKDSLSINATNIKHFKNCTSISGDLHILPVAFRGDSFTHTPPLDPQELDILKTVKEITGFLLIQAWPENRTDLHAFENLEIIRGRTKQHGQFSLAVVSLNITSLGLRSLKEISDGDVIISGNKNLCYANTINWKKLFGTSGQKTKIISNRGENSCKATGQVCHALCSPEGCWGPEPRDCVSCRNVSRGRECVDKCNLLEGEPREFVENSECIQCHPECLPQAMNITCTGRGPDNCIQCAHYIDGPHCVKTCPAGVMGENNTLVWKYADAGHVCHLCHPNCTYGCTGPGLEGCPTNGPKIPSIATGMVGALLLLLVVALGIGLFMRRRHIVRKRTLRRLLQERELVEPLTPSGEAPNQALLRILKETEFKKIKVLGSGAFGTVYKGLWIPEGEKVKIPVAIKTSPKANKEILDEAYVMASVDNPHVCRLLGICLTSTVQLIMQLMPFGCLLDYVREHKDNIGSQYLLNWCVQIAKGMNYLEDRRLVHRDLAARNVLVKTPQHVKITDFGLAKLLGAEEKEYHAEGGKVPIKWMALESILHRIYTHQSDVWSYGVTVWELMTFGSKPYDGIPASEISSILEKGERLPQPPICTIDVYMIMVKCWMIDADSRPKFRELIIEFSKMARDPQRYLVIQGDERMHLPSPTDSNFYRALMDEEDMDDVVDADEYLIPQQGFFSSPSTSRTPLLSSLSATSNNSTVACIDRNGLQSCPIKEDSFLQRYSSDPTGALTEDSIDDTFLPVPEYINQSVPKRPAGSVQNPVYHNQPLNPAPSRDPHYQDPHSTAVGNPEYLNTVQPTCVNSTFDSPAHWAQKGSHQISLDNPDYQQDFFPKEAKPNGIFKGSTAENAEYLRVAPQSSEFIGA

| IC50 [1] [nM] | IC50 [2] [nM] | IC50 [3] [nM] | IC50 [4] [nM] | IC50 [5] [nM] | IC50 [6] [nM] | SMILES |
| --- | --- | --- | --- | --- | --- | --- |
| ≤ 50 | 500 to 2500 | 50 to 500 | 500 to 2500 | 50 to 500 | 50 to 500 | CCc1cc(Nc2ncc(Br)c(Nc3ccc4nccnc4c3N(C)S(=O)(=O)C(F)(F)F)n2)c(OC)cc1N1CCC(N(C)C)CC1 [Compound I-127] |
| ≤ 50 | 500 to 2500 | 50 to 500 | 500 to 2500 | 50 to 500 | 50 to 500 | CCc1cc(Nc2ncc(Br)c(Nc3ccc4nccnc4c3N(C)S(=O)(=O)C(F)(F)F)n2)c(OC)cc1N1CCC(N(C)C)C1 (stereo not drawn) [Compound I-128] |
| 50 to 500 | 500 to 2500 | 50 to 500 | 500 to 2500 | 500 to 2500 | 50 to 500 | COc1cc(N2CCC(N3CCN(C)CC3)CC2)c(C)cc1Nc1ncc(Cl)c(Nc2ccc3nccnc3c2N(C)S(=O)(=O)C(F)(F)F)n1 [Compound I-129] |
| 50 to 500 | 50 to 500 | ≤ 50 | 50 to 500 | 50 to 500 | 50 to 500 | CCc1cc(Nc2ncc(Cl)c(Nc3ccc4nccnc4c3N(C)S(=O)(=O)C(F)(F)F)n2)c(OC)cc1N1CCC(N2CCN(C)CC2)CC1 [Compound I-130] |
| 50 to 500 | 500 to 2500 | 50 to 500 | 500 to 2500 | 500 to 2500 | 50 to 500 | CCc1cc(Nc2ncc(Cl)c(Nc3ccc4nccnc4c3N(C)S(=O)(=O)C(F)(F)F)n2)c(OC(F)(F)F)cc1N1CCC(N2CCN(C)CC2)CC1 [Compound I-131] |
| ≤ 50 | 500 to 2500 | 50 to 500 | 500 to 2500 | 50 to 500 | 50 to 500 | CCc1cc(Nc2ncc(Cl)c(Nc3ccc4nccnc4c3N(C)S(=O)(=O)C(F)(F)F)n2)c(OC)cc1N1CCC(N(C)C)CC1 [Compound I-132] |
| ≤ 50 | 500 to 2500 | 50 to 500 | 500 to 2500 | 50 to 500 | 50 to 500 | CCc1cc(Nc2ncc(Cl)c(Nc3ccc4nccnc4c3N(C)S(=O)(=O)C(F)(F)F)n2)c(OC)cc1N1CCC(N(C)C)C1 (stereo not drawn) [Compound I-133] |
| ≤ 50 | 50 to 500 | ≤ 50 | 50 to 500 | ≤ 50 | ≤ 50 | COc1cc(N2CCC(N3CCN(C)CC3)CC2)c(C)cc1Nc1ncc(Br)c(Nc2ccc3nccnc3c2N(C)S(=O)(=O)C(C)C)n1 [Compound I-134] |
| ≤ 50 | 50 to 500 | ≤ 50 | 50 to 500 | ≤ 50 | ≤ 50 | CCc1cc(Nc2ncc(Br)c(Nc3ccc4nccnc4c3N(C)S(=O)(=O)C(C)C)n2)c(OC)cc1N1CCC(N2CCN(C)CC2)CC1 [Compound I-135] |
| ≤ 50 | ≤ 50 | ≤ 50 | 50 to 500 | ≤ 50 | ≤ 50 | CCc1cc(Nc2ncc(Br)c(Nc3ccc4nccnc4c3N(C)S(=O)(=O)C(C)C)n2)c(OC)cc1N1CCC(N(C)C)CC1 [Compound I-137] |
| ≤ 50 | 50 to 500 | 50 to 500 | 50 to 500 | ≤ 50 | 50 to 500 | CCc1cc(Nc2ncc(Br)c(Nc3ccc4nccnc4c3N(C)S(=O)(=O)C(C)C)n2)c(OC)cc1N1CCC(N(C)C)C1 (stereo not drawn) [Compound I-138] |
| ≤ 50 | ≤ 50 | ≤ 50 | ≤ 50 | ≤ 50 | ≤ 50 | CCc1cc(Nc2ncc(Cl)c(Nc3ccc4nccnc4c3N(C)S(=O)(=O)C(C)C)n2)c(OC)cc1N1CCC(N(C)C)CC1 [Compound I-142] |
| ≤ 50 | 50 to 500 | ≤ 50 | 50 to 500 | 50 to 500 | 50 to 500 | CCc1cc(Nc2ncc(Cl)c(Nc3ccc4nccnc4c3N(C)S(=O)(=O)C(C)C)n2)c(OC)cc1N1CCC(N(C)C)C1 (stereo not drawn) [Compound I-143] |
| ≤ 50 | ≤ 50 | ≤ 50 | ≤ 50 | ≤ 50 | ≤ 50 | COc1cc(N2CCC(N3CCN(C)CC3)CC2)c(C)cc1Nc1ncc(Br)c(Nc2ccc3nccnc3c2N(C2CC2)S(C)(=O)=O)n1 [Compound I-154] |
| ≤ 50 | ≤ 50 | ≤ 50 | 50 to 500 | ≤ 50 | ≤ 50 | CCc1cc(Nc2ncc(Br)c(Nc3ccc4nccnc4c3N(C3CC3)S(C)(=O)=O)n2)c(OC)cc1N1CCC(N2CCN(C)CC2)CC1 [Compound I-155] |
| ≤ 50 | 50 to 500 | ≤ 50 | 50 to 500 | 50 to 500 | 50 to 500 | CCc1cc(Nc2ncc(Br)c(Nc3ccc4nccnc4c3N(C3CC3)S(C)(=O)=O)n2)c(OC(F)(F)F)cc1N1CCC(N2CCN(C)CC2)CC1 [Compound I-156] |
| ≤ 50 | ≤ 50 | ≤ 50 | ≤ 50 | ≤ 50 | ≤ 50 | CCc1cc(Nc2ncc(Br)c(Nc3ccc4nccnc4c3N(C3CC3)S(C)(=O)=O)n2)c(OC)cc1N1CCC(N(C)C)CC1 [Compound I-157] |
| ≤ 50 | 50 to 500 | ≤ 50 | 50 to 500 | ≤ 50 | ≤ 50 | CCc1cc(Nc2ncc(Br)c(Nc3ccc4nccnc4c3N(C3CC3)S(C)(=O)=O)n2)c(OC)cc1N1CCC(N(C)C)C1 (stereo not drawn) [Compound I-158] |
| ≤ 50 | ≤ 50 | ≤ 50 | ≤ 50 | ≤ 50 | ≤ 50 | COc1cc(N2CCC(N3CCN(C)CC3)CC2)c(C)cc1Nc1ncc(Cl)c(Nc2ccc3nccnc3c2N(C2CC2)S(C)(=O)=O)n1 [Compound I-159] |
| ≤ 50 | 50 to 500 | ≤ 50 | ≤ 50 | ≤ 50 | ≤ 50 | CCc1cc(Nc2ncc(Cl)c(Nc3ccc4nccnc4c3N(C3CC3)S(C)(=O)=O)n2)c(OC)cc1N1CCC(N2CCN(C)CC2)CC1 [Compound I-160] |
| 50 to 500 | 50 to 500 | 50 to 500 | 50 to 500 | 50 to 500 | 50 to 500 | CCc1cc(Nc2ncc(Cl)c(Nc3ccc4nccnc4c3N(C3CC3)S(C)(=O)=O)n2)c(OC(F)(F)F)cc1N1CCC(N2CCN(C)CC2)CC1 [Compound I-161] |
| ≤ 50 | ≤ 50 | ≤ 50 | ≤ 50 | ≤ 50 | ≤ 50 | CCc1cc(Nc2ncc(Cl)c(Nc3ccc4nccnc4c3N(C3CC3)S(C)(=O)=O)n2)c(OC)cc1N1CCC(N(C)C)CC1 [Compound I-162] |
| ≤ 50 | ≤ 50 | ≤ 50 | ≤ 50 | ≤ 50 | ≤ 50 | CCc1cc(Nc2ncc(Cl)c(Nc3ccc4nccnc4c3N(C3CC3)S(C)(=O)=O)n2)c(OC)cc1N1CCC(N(C)C)C1 (stereo not drawn) [Compound I-163] |
| 50 to 500 | 50 to 500 | 500 to 2500 | 500 to 2500 | 50 to 500 | 50 to 500 | COc1nc(N2CCC(N3CCN(C)CC3)CC2)ccc1Nc1ncc(Cl)c(Nc2ccc3nccnc3c2N(C)S(C)(=O)=O)n1 [Compound I-164] |
| ≤ 50 | 50 to 500 | 50 to 500 | 50 to 500 | 50 to 500 | 50 to 500 | CN1CCN(C2CCN(c3ccc(Nc4ncc(Cl)c(Nc5ccc6nccnc6c5N(C)S(C)(=O)=O)n4)c(OC(F)(F)F)c3)CC2)CC1 [Compound I-166] |
| ≤ 50 | ≤ 50 | ≤ 50 | 50 to 500 | ≤ 50 | ≤ 50 | COc1cc(N2CCC(N3CCN(C)CC3)CC2)c(CC2CC2)cc1Nc1ncc(Cl)c(Nc2ccc3nccnc3c2N(C)S(C)(=O)=O)n1 [Compound I-167] |
| 500 to 2500 | 500 to 2500 | 50 to 500 | 500 to 2500 | 500 to 2500 | 500 to 2500 | COc1cc(N2CCC(N3CCN(C)CC3)CC2)c(Cc2ccccc2)cc1Nc1ncc(Cl)c(Nc2ccc3nccnc3c2N(C)S(C)(=O)=O)n1 [Compound I-168] |
| ≤ 50 | ≤ 50 | ≤ 50 | ≤ 50 | ≤ 50 | ≤ 50 | COc1cc(N2CCC(N(C)C)CC2)c(C)cc1Nc1ncc(Cl)c(Nc2ccc3nccnc3c2N(C)S(C)(=O)=O)n1 [Compound I-169] |
